Data published in the NIST ThermoML archive (doi:10.1016/j.jct.2019.03.023).
“And” between values parts separate entries of the source, which are not always exact repeats. Equal values may be shown once.

Experiment: molar heat capacity at constant volume
Conditions: Vacuum adiabatic calorimetry

CC(C)O [propan-2-ol]
Fluid (supercritical or subcritical phases)
Conditions	molar heat capacity at constant volume
380.8 K, Mass density=697.69 kg/m3	187.08 J/K/mol
380.91 K, Mass density=697.69 kg/m3	187.8 J/K/mol
381.02 K, Mass density=697.69 kg/m3	186.29 J/K/mol
381.13 K, Mass density=697.69 kg/m3	184.61 J/K/mol
381.24 K, Mass density=697.69 kg/m3	185.39 J/K/mol
381.35 K, Mass density=697.69 kg/m3	184.49 J/K/mol
381.46 K, Mass density=697.69 kg/m3	184.01 J/K/mol
381.57 K, Mass density=697.69 kg/m3	184.67 J/K/mol
381.69 K, Mass density=697.69 kg/m3	184.97 J/K/mol
391.32 K, Mass density=329.2 kg/m3	243.38 J/K/mol
391.53 K, Mass density=329.2 kg/m3	248.85 J/K/mol
391.54 K, Mass density=329.2 kg/m3	243.44 J/K/mol
391.65 K, Mass density=329.2 kg/m3	246.93 J/K/mol
391.76 K, Mass density=329.2 kg/m3	235.69 J/K/mol
391.87 K, Mass density=329.2 kg/m3	241.16 J/K/mol
391.98 K, Mass density=329.2 kg/m3	242.54 J/K/mol
392.09 K, Mass density=329.2 kg/m3	244.11 J/K/mol
392.2 K, Mass density=329.2 kg/m3	243.2 J/K/mol
399.51 K, Mass density=343.1 kg/m3	235.93 J/K/mol
399.72 K, Mass density=343.1 kg/m3	235.93 J/K/mol
399.83 K, Mass density=343.1 kg/m3	239.24 J/K/mol
399.94 K, Mass density=343.1 kg/m3	242.54 J/K/mol
400.04 K, Mass density=343.1 kg/m3	236.05 J/K/mol
400.15 K, Mass density=343.1 kg/m3	239.36 J/K/mol
400.25 K, Mass density=343.1 kg/m3	239.42 J/K/mol
400.36 K, Mass density=343.1 kg/m3	239.42 J/K/mol
400.46 K, Mass density=343.1 kg/m3	236.23 J/K/mol
400.57 K, Mass density=343.1 kg/m3	239.54 J/K/mol
416.55 K, Mass density=329.2 kg/m3	258.83 J/K/mol
416.65 K, Mass density=329.2 kg/m3	260.09 J/K/mol
416.76 K, Mass density=329.2 kg/m3	252.52 J/K/mol
416.86 K, Mass density=329.2 kg/m3	257.99 J/K/mol
416.97 K, Mass density=329.2 kg/m3	255.76 J/K/mol
417.08 K, Mass density=329.2 kg/m3	261.47 J/K/mol
417.18 K, Mass density=329.2 kg/m3	252.94 J/K/mol
417.29 K, Mass density=329.2 kg/m3	253.84 J/K/mol
417.39 K, Mass density=329.2 kg/m3	259.73 J/K/mol
417.5 K, Mass density=329.2 kg/m3	261.17 J/K/mol
442.12 K, Mass density=329.2 kg/m3	262.92 J/K/mol
442.23 K, Mass density=329.2 kg/m3	265.86 J/K/mol
442.33 K, Mass density=329.2 kg/m3	272.53 J/K/mol
442.43 K, Mass density=329.2 kg/m3	265.68 J/K/mol
442.54 K, Mass density=329.2 kg/m3	266.76 J/K/mol
442.64 K, Mass density=329.2 kg/m3	267.6 J/K/mol
442.74 K, Mass density=329.2 kg/m3	270.13 J/K/mol
442.85 K, Mass density=329.2 kg/m3	265.86 J/K/mol
447.55 K, Mass density=581.06 kg/m3	250.9 J/K/mol
447.75 K, Mass density=581.06 kg/m3	250.96 J/K/mol
447.85 K, Mass density=581.06 kg/m3	250.96 J/K/mol
447.95 K, Mass density=581.06 kg/m3	253.06 J/K/mol
448.05 K, Mass density=581.06 kg/m3	255.1 J/K/mol
448.15 K, Mass density=581.06 kg/m3	251.08 J/K/mol
448.25 K, Mass density=581.06 kg/m3	251.08 J/K/mol
448.35 K, Mass density=581.06 kg/m3	253.18 J/K/mol
448.54 K, Mass density=581.06 kg/m3	253.06 J/K/mol
448.64 K, Mass density=581.06 kg/m3	255.16 J/K/mol
448.74 K, Mass density=581.06 kg/m3	253.12 J/K/mol
448.84 K, Mass density=581.06 kg/m3	251.14 J/K/mol
448.94 K, Mass density=581.06 kg/m3	253.18 J/K/mol
449.04 K, Mass density=581.06 kg/m3	253.24 J/K/mol
449.14 K, Mass density=581.06 kg/m3	255.28 J/K/mol
449.24 K, Mass density=581.06 kg/m3	253.3 J/K/mol
449.34 K, Mass density=581.06 kg/m3	253.3 J/K/mol
449.44 K, Mass density=581.06 kg/m3	253.3 J/K/mol
449.63 K, Mass density=581.06 kg/m3	251.56 J/K/mol
449.73 K, Mass density=581.06 kg/m3	253.6 J/K/mol
449.83 K, Mass density=581.06 kg/m3	255.7 J/K/mol
449.93 K, Mass density=581.06 kg/m3	255.7 J/K/mol
450.03 K, Mass density=581.06 kg/m3	251.62 J/K/mol
450.13 K, Mass density=581.06 kg/m3	249.63 J/K/mol
450.23 K, Mass density=581.06 kg/m3	255.82 J/K/mol
450.33 K, Mass density=581.06 kg/m3	253.78 J/K/mol
450.43 K, Mass density=581.06 kg/m3	253.78 J/K/mol
450.52 K, Mass density=581.06 kg/m3	253.84 J/K/mol
450.62 K, Mass density=581.06 kg/m3	253.54 J/K/mol
450.72 K, Mass density=581.06 kg/m3	251.86 J/K/mol
450.92 K, Mass density=581.06 kg/m3	253.72 J/K/mol
451.06 K, Mass density=581.06 kg/m3	251.62 J/K/mol
451.16 K, Mass density=581.06 kg/m3	252.94 J/K/mol
451.26 K, Mass density=581.06 kg/m3	249.63 J/K/mol
451.36 K, Mass density=581.06 kg/m3	249.63 J/K/mol
451.46 K, Mass density=581.06 kg/m3	249.69 J/K/mol
451.56 K, Mass density=581.06 kg/m3	249.69 J/K/mol
451.66 K, Mass density=581.06 kg/m3	251.8 J/K/mol
451.75 K, Mass density=581.06 kg/m3	250.3 J/K/mol
451.81 K, Mass density=581.06 kg/m3	247.95 J/K/mol
451.83 K, Mass density=581.06 kg/m3	250 J/K/mol and 186.78 J/K/mol
451.86 K, Mass density=581.06 kg/m3	181.85 J/K/mol
451.91 K, Mass density=581.06 kg/m3	175.18 J/K/mol
451.95 K, Mass density=581.06 kg/m3	179.26 J/K/mol
452.01 K, Mass density=581.06 kg/m3	174.52 J/K/mol

Conditions	molar heat capacity at constant volume [J/K/mol]
451.83 K, Liquid	186.78
